Experimental data as given in ChEMBL document CHEMBL1128439, “Evaluation of cis- and trans-9- and 11-hydroxy-5,6,6a,7,8,12b-hexahydrobenzo[a]phenanthridines as structurally rigid, selective D1 dopamine receptor ligands” (J Med Chem, 1995).
The source made the active and inactive calls. No cut-off for these calls is given here.

Legend:
Rattus norvegicus [1] = species: Rattus norvegicus; assay: Effect on cAMP synthesis in rat striatal membranes as increase above basal value at a concentration of 10 uM; assay type: functional; conditions: Striatum, Membrane
D(1A) dopamine receptor [2] = molecular target: D(1A) dopamine receptor (Rattus norvegicus, UniProt P18901)
Sequence of D(1A) dopamine receptor (Rattus norvegicus, UniProt P18901) (P18901 whole entry): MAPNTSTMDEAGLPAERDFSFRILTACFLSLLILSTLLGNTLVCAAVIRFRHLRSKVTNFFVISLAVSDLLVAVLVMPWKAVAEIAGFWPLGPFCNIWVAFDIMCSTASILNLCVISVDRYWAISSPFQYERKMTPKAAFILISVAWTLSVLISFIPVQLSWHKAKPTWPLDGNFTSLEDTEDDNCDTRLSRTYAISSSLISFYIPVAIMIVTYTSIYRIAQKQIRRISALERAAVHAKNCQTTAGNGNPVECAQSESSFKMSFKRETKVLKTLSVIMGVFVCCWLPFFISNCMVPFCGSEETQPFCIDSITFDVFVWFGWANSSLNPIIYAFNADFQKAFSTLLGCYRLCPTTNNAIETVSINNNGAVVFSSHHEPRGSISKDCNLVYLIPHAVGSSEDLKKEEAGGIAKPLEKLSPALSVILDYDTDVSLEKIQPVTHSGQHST

D(2) dopamine receptor [3] = molecular target: D(2) dopamine receptor (Rattus norvegicus, UniProt P61169)
Sequence of D(2) dopamine receptor (Rattus norvegicus, UniProt P61169) (P61169 whole entry): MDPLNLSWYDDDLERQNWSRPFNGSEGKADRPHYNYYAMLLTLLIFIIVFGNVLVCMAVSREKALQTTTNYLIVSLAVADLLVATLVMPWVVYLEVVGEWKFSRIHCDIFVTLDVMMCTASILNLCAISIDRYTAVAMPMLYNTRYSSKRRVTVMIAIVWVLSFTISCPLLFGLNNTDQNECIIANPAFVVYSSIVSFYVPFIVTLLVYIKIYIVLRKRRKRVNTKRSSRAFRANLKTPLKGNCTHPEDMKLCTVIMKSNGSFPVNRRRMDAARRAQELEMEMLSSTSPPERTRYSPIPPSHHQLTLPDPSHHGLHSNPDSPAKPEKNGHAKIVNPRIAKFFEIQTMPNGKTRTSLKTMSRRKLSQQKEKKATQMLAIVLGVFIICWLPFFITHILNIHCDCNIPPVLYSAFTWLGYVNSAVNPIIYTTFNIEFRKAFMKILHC

Rattus norvegicus [4] = species: Rattus norvegicus; assay: Effect on cAMP synthesis in rat striatal membranes as increase above basal value at a concentration of 10 uM; NS= no synthesis detected; assay type: functional; conditions: Striatum, Membrane
D(2) dopamine receptor [5] = molecular target: D(2) dopamine receptor (Homo sapiens, UniProt P14416); assay: In vitro receptor binding affinity against Dopamine receptor D2
Sequence of D(2) dopamine receptor (Homo sapiens, UniProt P14416) (P14416 whole entry): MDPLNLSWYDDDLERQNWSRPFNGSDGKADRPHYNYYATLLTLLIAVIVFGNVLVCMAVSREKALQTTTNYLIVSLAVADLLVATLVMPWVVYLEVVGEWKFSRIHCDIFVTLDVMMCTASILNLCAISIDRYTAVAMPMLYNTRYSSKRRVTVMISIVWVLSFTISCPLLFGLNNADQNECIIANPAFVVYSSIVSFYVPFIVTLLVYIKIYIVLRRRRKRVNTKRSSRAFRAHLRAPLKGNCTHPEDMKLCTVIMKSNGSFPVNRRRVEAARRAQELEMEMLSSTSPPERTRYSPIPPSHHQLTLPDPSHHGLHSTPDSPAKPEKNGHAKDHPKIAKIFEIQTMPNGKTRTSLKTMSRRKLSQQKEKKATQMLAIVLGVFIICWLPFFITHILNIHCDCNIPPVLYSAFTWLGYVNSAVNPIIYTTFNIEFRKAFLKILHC

D(1A) dopamine receptor [6] = molecular target: D(1A) dopamine receptor (Homo sapiens, UniProt P21728); assay: Affinity towards Dopamine receptor D1
Sequence of D(1A) dopamine receptor (Homo sapiens, UniProt P21728) (P21728 whole entry): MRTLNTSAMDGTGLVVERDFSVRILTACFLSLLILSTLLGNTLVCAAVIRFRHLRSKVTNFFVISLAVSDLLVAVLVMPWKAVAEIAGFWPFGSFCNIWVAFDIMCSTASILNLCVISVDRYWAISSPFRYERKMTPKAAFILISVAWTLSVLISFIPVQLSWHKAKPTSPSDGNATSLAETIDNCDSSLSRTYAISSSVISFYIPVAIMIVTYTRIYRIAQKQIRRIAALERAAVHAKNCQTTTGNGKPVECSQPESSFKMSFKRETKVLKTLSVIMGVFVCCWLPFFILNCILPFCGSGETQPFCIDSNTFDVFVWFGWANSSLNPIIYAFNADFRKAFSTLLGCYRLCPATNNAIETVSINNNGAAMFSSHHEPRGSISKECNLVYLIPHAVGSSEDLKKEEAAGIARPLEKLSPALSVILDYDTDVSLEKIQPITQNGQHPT

Rattus norvegicus [7] = species: Rattus norvegicus; assay: Effect on cAMP synthesis in rat striatal membranes as increase above basal value at a concentration of 10 uM in the presence of 1 uM of SCH 23390.; assay type: functional; conditions: Striatum, Membrane

Compound	Increase (Rattus norvegicus [1]) [%]	IC50 (D(1A) dopamine receptor [2]) [nM]	IC50 (D(2) dopamine receptor [3]) [nM]	Increase (Rattus norvegicus [4])	IC50 (D(2) dopamine receptor [5]) [nM]	IC50 (D(1A) dopamine receptor [6]) [nM]	Increase (Rattus norvegicus [7]) [%]
Oc1ccc2c(c1)[C@H]1c3ccccc3CN[C@@H]1CC2	15	102	631	–	–	–	–
NCCc1ccc(O)c(O)c1	100	–	–	–	–	–	–
CN1Cc2ccccc2[C@@H]2c3cc(O)c(Br)cc3CC[C@H]21	–	322	3000	inactive	–	–	–
Oc1cccc2c1CC[C@H]1NCc3ccccc3[C@H]21	–	5550	532	–	–	–	–
NC1CCc2cc(O)c(O)cc2[C@H]1c1ccccc1 (some centres not stated)	–	–	–	–	> 1000	> 1000	–
CN1Cc2ccccc2[C@@H]2c3cc(O)ccc3CC[C@H]21	8	115	359	–	–	–	–
Oc1ccc2c(c1)[C@@H]1c3ccccc3CN[C@@H]1CC2	–	16700	15500	inactive	–	–	–
Oc1cccc2c1CC[C@H]1NCc3ccccc3[C@@H]21	–	2900	2000	inactive	–	–	–
Oc1cc2c(cc1O)[C@H]1c3ccccc3CN[C@@H]1CC2	103	–	–	–	–	–	1
CN1Cc2ccccc2[C@@H]2c3ccc(O)c(O)c3CC[C@H]21	–	955	121	inactive	–	–	–
CCCN1Cc2ccccc2[C@@H]2c3cc(O)ccc3CC[C@H]21	–	529	210	–	–	–	–
